Laboratory results published in US20100029615A1, “BENZIMIDAZOLE DERIVATIVES” (priority 2006, published 2010).
Where a name gives a salt, the structure may show the parent alone.

Each molecule was assayed against T1, SMO (Mus musculus, UniProt P56726) (assay: Smoothened (SMO)/Sonic Hedgehog (SHh) Transient Transcriptional Activation Assay (Gli-luciferase reporter in C3H10T1/2 cells)). Conditions: 2 uM test compound, SHh 250 ng/ml, 20 hrs.
T1 construct: endogenous in cells; host or cells: C3H10T1/2 (ATCC #CCL-226)
T1 sequence (P56726 33-793): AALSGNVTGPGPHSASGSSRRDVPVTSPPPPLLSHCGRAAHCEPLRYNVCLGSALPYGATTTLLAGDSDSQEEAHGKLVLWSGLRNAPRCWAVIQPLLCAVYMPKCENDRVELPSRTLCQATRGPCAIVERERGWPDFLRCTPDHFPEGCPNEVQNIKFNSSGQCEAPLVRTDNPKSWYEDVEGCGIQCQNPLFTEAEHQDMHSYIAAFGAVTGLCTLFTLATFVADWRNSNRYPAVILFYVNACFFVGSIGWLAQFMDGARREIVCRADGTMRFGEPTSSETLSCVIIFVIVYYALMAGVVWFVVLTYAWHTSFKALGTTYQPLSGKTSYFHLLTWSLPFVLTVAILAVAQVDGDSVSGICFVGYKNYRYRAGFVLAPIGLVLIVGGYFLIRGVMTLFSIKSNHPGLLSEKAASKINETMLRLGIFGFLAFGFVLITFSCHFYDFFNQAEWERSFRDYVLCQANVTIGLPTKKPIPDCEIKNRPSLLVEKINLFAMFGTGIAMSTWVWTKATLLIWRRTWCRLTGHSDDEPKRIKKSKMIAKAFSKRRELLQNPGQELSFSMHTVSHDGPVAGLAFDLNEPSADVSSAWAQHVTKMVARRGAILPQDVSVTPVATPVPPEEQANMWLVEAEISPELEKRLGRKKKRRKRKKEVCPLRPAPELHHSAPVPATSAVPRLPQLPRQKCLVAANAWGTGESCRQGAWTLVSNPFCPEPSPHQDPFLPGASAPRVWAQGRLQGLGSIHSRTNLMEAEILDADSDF
Format: cell-based, murine
Summary of the method: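 Luminescence (Dual-Glo) measured after 20 h co-exposure at 37 °C to 250 ng/ml human SHh and compound at 2 uM down to 2 nM final. Cells were C3H10T1/2 carrying a transfected murine 10× Gli response-element luciferase construct with pEGFP, starved 20 h in 0.5% calf serum beforehand.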

Molecule	SMO % inhibition at 2 uM [%]
N-(3-(6-((2-Methoxyethylamino)methyl)-1-methyl-1H-benzo[d]imidazol-2-yl)cyclohexyl)-2,3-dihydrobenzo[b][1,4]dioxine-6-carboxamide and N-(3-(5-((2-methoxyethylamino)methyl)-1-methyl-1H-benzo[d]imidazol-2-yl)cyclohexyl)-2,3-dihydrobenzo[b][1,4]dioxine-6-carboxamide [Example 38]	103
N-((1R,3R)-3-(1H-benzo[d]imidazol-2-yl)cyclohexyl)-3-oxo-3,4-dihydro-2H-benzo[b][1,4]oxazine-6-carboxamide and N-((1S,3S)-3-(1H-benzo[d]imidazol-2-yl)cyclohexyl)-3-oxo-3,4-dihydro-2H-benzo[b][1,4]oxazine-6-carboxamide [Example 48]	80

Results, then the molecule that gave them:

SMO % inhibition at 2 uM [%]	Molecule
104	N-(3-(6-(Hydroxymethyl)-1-methyl-1H-benzo[d]imidazol-2-yl)cyclohexyl)-2,3-dihydrobenzo[b][1,4]dioxine-6-carboxamide and N-(3-(5-(Hydroxymethyl)-1-methyl-1H-benzo[d]imidazol-2-yl)cyclohexyl)-2,3-dihydrobenzo[b][1,4]dioxine-6-carboxamide [Example 30]
104	N-(3-(5-(Aminomethyl)-1-methyl-1H-benzo[d]imidazol-2-yl)cyclohexyl)-3,5-dimethoxybenzamide and N-(3-(6-(aminomethyl)-1-methyl-1H-benzo[d]imidazol-2-yl)cyclohexyl)-3,5-dimethoxybenzamide [Example 23]

Same assay, conditions: C3H 10T1/2, 2 uM test compound, SHh 250 ng/ml, 20 hrs, read-out: SMO % inhibition at 2 uM

Molecule	inhibition at 2 µM [%]
CN(C)c1ccc2nc(C3CCCC(NC(=O)c4ccc5c(c4)OCCO5)C3)[nH]c2c1 (stereo not drawn) [Example 39]	102
COc1cc(OC)cc(C(=O)NC2CCCC(c3nc4ccc(C)cc4[nH]3)C2)c1 (stereo not drawn) [Example 5, 3,5-dimethoxy-N-[3-(5-methyl-1H-benzo[d]imidazol-2-yl)cyclohexyl)benzamide]	102

Second part, the molecule after the results:

inhibition at 2 µM [%]	Molecule
113	COc1cc(OC)cc(C(=O)NC2CCCC(c3nc4ccc(C)cc4n3C)C2)c1 (stereo not drawn) [Example 26, N-(3-(1,6-Dimethyl-1H-benzo[d]imidazol-2-yl)cyclohexyl]-3,5-dimethoxybenzamide]
108	CN1C(=O)COc2ccc(C(=O)N[C@@H]3CCC[C@H](c4nc5ccccc5[nH]4)C3)cc21 [Example 45, N-((1R,3S)-3-(1H-Benzo[d]midazol-2-yl)cyclohexyl)-4-methyl-3-oxo-3,4-dihydro-2H-benzo[b][1,4]oxazine-6-carboxamide]
62	COc1cc(OC)cc(C(=O)NC2CCCC(c3nc4ccc(NS(=O)(=O)C(C)C)cc4[nH]3)C2)c1 (stereo not drawn) [Example 12, 3,5-Dimethoxy-N-(3-(5-(propan-2-ylsulfonamido)-1H-benzo[d]imidazol-2-yl)cyclohexyl)]

Same assay, conditions: C3H 10T1/2, 2 μM test compound, SHh 250 ng/ml, 20 hrs, read-out: SMO CELL % INHIBITION @ 2 μM

Molecule	inhibition at 2 µM [%]
O=C(N[C@@H]1CCC[C@H](c2nc3ccccc3[nH]2)C1)c1ccc2c(c1)CNCC2 [Example 308, N-[(1R,3S)-3-(1H-benzimidazol-2-yl)cyclohexyl]-1,2,3,4-tetrahydroiso-quinoline-7-carboxamide HCl]	96.2
Cc1n[nH]c(C)c1/C=C/C(=O)NC1CCCC(c2nc3ccccc3[nH]2)C1 (stereo not drawn) [Example 136, (2E)-N-[3-(1H-benzimidazol-2-yl)cyclohexyl]-3-(3,5-dimethyl-1H-pyrazol-4-yl)acrylamide triflouroacetate]	86
O=C(NC1CCCC(c2nc3ccccc3[nH]2)C1)c1cnn2c1CCCC2 (stereo not drawn) [Example 122, N-(3-(1H-benzo[d]imida-zol-2-yl)cyclohexyl)-4,5,6,7-tetrahydropyr-azolo[1,5-a]pyridine-3-carboxamide triflouroacetate]	92
Cc1c(Br)cc2[nH]c(C3CCCC(NC(=O)c4ccc5c(c4)OCCO5)C3)nc2c1C (stereo not drawn) [Example 82, N-[3-(6-bromo-4,5-dimethyl-1H-benzimidazol-2-yl)cyclohexyl]-2,3-dihydro-1,4-benzodioxine-6-carboxamide HCl]	101
CC(C)C1=NOC(C(=O)NC2CCCC(c3nc4ccccc4[nH]3)C2)C1 (stereo not drawn) [Example 97, N-[3-(1H-benzimidazol-2-yl)cyclohexyl]-3-isopropyl-4,5-dihydroisoxazole-5-carboxamide triflouroacetate]	83
Cn1cncc1C(=O)N[C@@H]1CCC[C@H](c2nc3ccccc3[nH]2)C1 [Example 174, N-[(1R,3S)-3-(1H-benzimidazol-2-yl)cyclohexyl]-1-methyl-1H-imidazole-5-carboxamide HCl]	64
O=C(N[C@H]1CCC[C@H](c2nc3ccccc3[nH]2)C1)c1cc(C2CC2)n[nH]1 [Example 246, N-(3-(1H-benzo[d]imidaz-ol-2-yl)cyclohexyl)-3-cyclopropyl-1H-pyrazole-5-carboxamide HCl]	44
O=C(Cc1cn2cc(Cl)ccc2n1)NC1CCCC(c2nc3ccccc3[nH]2)C1 (stereo not drawn) [Example 107, N-[3-(1H-benzimidazol-2-yl)cyclohexyl]-2-(6-chloroimidazo[1,2-a]pyridin-2-yl)acetamide triflouroacetate]	79
CN(C)c1ccc2nc(C3CCCC(NC(=O)c4ccc5c(c4)OCCO5)C3)[nH]c2c1 (stereo not drawn) [Example 77, N-{3-[6-(dimethylamino)-1H-benzimidazol-2-yl]cyclohexyl}-2,3-dihydro-1,4-benzodioxine-6-carboxamide HCl]	102
O=C(NC12CCCC(c3nc4cc(C(F)(F)F)ccc4[nH]3)(C1)C2)c1ccc(C(=O)c2ccccc2)cc1 [Example 275, 4-benzoyl-N-{5-[5-(trifluoromethyl)-1H-benzimidazol-2-yl]bicyclo[3.1.1]hept-1-yl}benzamide]	89
COc1ccc2cc(C(=O)N[C@H]3CCC[C@H](c4nc5ccccc5[nH]4)C3)n(C)c2c1 [Example 248, N-(3-(1H-benzo[d]imidaz-ol-2-yl)cyclohexyl)-6-methoxy-1-methyl-1H-indole-2-carboxamide HCl]	74
O=C(Nc1ccc(F)c(C(F)(F)F)c1)NC12CCCC(c3nc4ccccc4[nH]3)(C1)C2 [Example 255, 1-(5-(1H-benzo[d]imidaz-ol-2-yl)bicyclo[3.1.1]heptan-1-yl)-3-(4-fluoro-3-(trifluoromethyl)phenyl)urea HCL]	101
Cn1ccnc1C(=O)NC1CCCC(c2nc3ccccc3[nH]2)C1 (stereo not drawn) [Example 164, N-[3-(1H-benzimidazol-2-yl)cyclohexyl]-1-methyl-1H-imidazole-2-carboxamide triflouroacetate]	106
Cc1cc(C)n(CCC(=O)NC2CCCC(c3nc4ccccc4[nH]3)C2)n1 (stereo not drawn) [Example 120, N-[3-(1H-benzimidazol-2-yl)cyclohexyl]-3-(3,5-dimethyl-1H-pyrazol-1-yl)propanamide triflouroacetate]	70

Next, values leading:

inhibition at 2 µM [%]	Molecule
98.5	O=C(N[C@@H]1CCC[C@H](c2nc3cc(C(F)(F)F)ccc3[nH]2)C1)c1n[nH]c2c1CCCC2 [Example 281, N-{(1R,3S)-3-[5-(trifluoromethyl)-1H-benzimidazol-2-yl]cyclohexyl]-4,5,6,7-tetrahydro-1H-indazol-3-carboxamide HCl]
101	COCCn1c([C@H]2CCC[C@@H](NC(=O)c3ccc4c(c3)OCCO4)C2)nc2ccccc21 [Example 76, N-{(1R,3S)-3-[1-(2-methoxyethyl)-1H-benzimidazol-2-yl]cyclohexyl}-2,3-dihydro-1,4-benzodioxine-6-carboxamide]
46	COc1cc(OC)cc(C(=O)N[C@H]2CCC[C@H](c3nc4ccccc4[nH]3)C2)c1 [Example 252, N-(3-(1H-benzo[d]imidaz-ol-2-yl)cyclohexyl)-3,5-dimethoxybenz-amide HCl]
60	Cn1c([C@@H]2CCC[C@@H](NC(=O)c3ccc4c(c3)OCCO4)C2)nc2ccccc21 [Example 240, N-([1R,3R]-3-(1-methyl-1H-benzo[d]imidaz-ol-2-yl)cyclohexyl)-2,3-dihydrobenzo[b] [1,4]dioxine-6-carboxamide HCl]
67	O=C(N[C@@H]1CCC[C@H](c2nc3ccccc3[nH]2)C1)c1n[nH]c2ccccc12 [Example 199, N-[(1R,3S)-3-(1H-benzimidazol-2-yl)cyclohexyl]-1H-indazole-3-carboxamide triflouroacetate]
63	COc1cc(C(=O)N[C@@H]2CCC[C@H](c3nc4ccccc4[nH]3)C2)ccn1 [Example 165, N-[(1R,3S)-3-(1H-benzimidazol-2-yl)cyclohexyl]-2-methoxyisonico-tinamide HCl]
91.6	Cn1c([C@H]2CCC[C@@H](NC(=O)c3ccc4c(c3)CNCC4)C2)nc2ccccc21 [Example 310, N-[(1R,3S)-3-(1-methyl-1H-benzimidazol-2-yl)cyclohexyl]-1,2,3,4-tetrahydroiso-quinoline-7-carboxamide HCl]
83	CC(=O)N[C@H](Cc1ccccc1)C(=O)NC1CCCC(c2nc3ccccc3[nH]2)C1 (stereo partly drawn) [Example 123, Nalpha-acetyl-N-[3-(1H-benzimidazol-2-yl)cyclohexyl]-D-phenylalanin-amide triflouroacetate]
66	Cn1c(C23CCCC(NC(=O)c4ccc5c(c4)OCCO5)(C2)C3)nc2ccccc21 [Example 244, N-(5-(1-methyl-1H-benzo[d]imidaz-ol-2-yl)bicyclo[3.1.1]heptan-1-yl)-2,3-dihydrobenzo[b] [1,4]dioxine-6-carboxamide]
71	CN(C)S(=O)(=O)CC(=O)NC1CCCC(c2nc3ccccc3[nH]2)C1 (stereo not drawn) [Example 162, N-[3-(1H-benzimidazol-2-yl)cyclohexyl]-2-{(dimethylamino)-sulfonyl]-acetamide triflouroacetate]
